Results on three molecules are retold here after patent US20210189342A1, “COMPOSITIONS AND METHODS FOR MODULATING MONOCYTE AND MACROPHAGE INFLAMMATORY PHENOTYPES AND IMMUNOTHERAPY USES THEREOF” (Verseau Therapeutics, Inc., priority 2018, published 2021).

The test system of one test is dissociated tumors. The test can be described thus: dissociated tumor assay. Type of test: cell-based, human. Particulars: 10 ug/mL, 24 or 48 hrs, FIG. 8. An excerpt: One system used for this purpose was a dissociated tumor assay. Dissociated tumors contain all the various cell populations present in the tumor microenvironment, including, for example, tumor cells, immune cells, and support cells. These viable single cell suspensions are useful for many applications and allow for the normalization of cell number and composition within each replicate of an experiment. For performing dissociated tumor experiments upon acquisition of fresh tumor tissue (less than 24 hrs), surrounding fat, fibrous areas, and necrotic areas were removed from a tumor sample using scissors and scalpels. The tumor was cut into small pieces of 2-4 mm^3. The Tumor Dissociation Kit enzyme mix (MACS Miltenyi Biotec) was prepared according to the manufacturer's protocol. Tumor pieces and dissociation enzymes were transferred into 5 ml Snaplock Microcentrifuge tubes and the tissue was minced using a pair of straight scissors. Tubes were placed in a 37° C. shaker at 200-250 rpm for 45 minutes to 1 hour. At the end of the incubation time, the digested tumor was filtered through […] cell strainers into 50 mL Falcon™ conical centrifuge tubes. […] At the end of the study, cytokines/chemokines in the culture supernatant were measured using the Invitrogen™ Luminex™ Cytokine Human Magnetic 25-Plex Panel according to the manufacturer's instructions. […]

For the next test, the system named is tumor tissue slices. The test can be described thus: tumor tissue slice cultures. Type of test: cell-based, human. Conditions: 10 ug/mL. From the text:
A second system was used to further confirm the results of the dissociated tumor assays. Briefly, dissociated tumor assays have the advantage of being able to normalize the number of cells in every condition performed. They also have the potential downside of losing the tumor structure and non-cellular stromal components. […] Upon acquisition of fresh tumor tissue sample (less than 24 hrs), surrounding fat, fibrous, and necrotic areas were removed from the tumor sample as much as possible using scissors and scalpels. The tissue was embedded in the center of a tissue mold using 4% agarose. After solidifying, the agarose block was dislodged, and the mold was glued to a Leica VT1000 S microtome tissue holder and sectioned into 300 to 400 micron sections using the Leica VT1000 S microtome. […] At the end of the study, efficacy was evaluated by analyzing cytokine/chemokine amounts secreted into the culture supernatant measured using the Invitrogen™ Luminex™ Cytokine Human Magnetic 25-Plex Panel according to the manufacturer's instructions. […]

Test [1] relates to peripheral blood mononuclear cells (PBMCs). It is filed as cell-based, human. Conditions: SEB assay, 5 μg/ml, FIG. 5.
The test system of test [2] is M2 macrophages. Kind of test: M2 macrophage polarization, antibodies added only during the last two days, cytokines. Type of test: cell-based, human. Conditions: 10 ug/mL (77, 78, 81-84 at 1 ug/mL), FIGS. 4D-4G. How it is done:
Briefly, monocytes were isolated from whole blood of fresh donors by Ficoll separation with RosetteSep™ Human Monocyte Enrichment Cocktail (Stemcell Techhnologies, Vancouver Canada) according to the manufacturer's instructions. Isolated monocytes were arrayed in 24-well plates overnight in Iscove's Modified Dubelcos Media ([…]) (ThermoFisher) media containing 10% fetal bovine serum and non-adherent cells were washed off after 24 hours. Monocytes were differentiated into macrophages by culturing for 6 days in IMDM 10% FBS plus 50 ng/ml human M-CSF for M2 macrophages, or 50 ng/ml GM-CSF (Biolegend, San Diego, Calif.) for M1 macrophages. M1 macrophages were activated on day 6 with IFN-gamma and LPS, whereas M2 macrophages were polarized on day 6 with 20 ng/ml IL-10 and activated on day 7 with 100 ng/ml LPS. […] Cells were assessed for expression of M1 and M2 markers as described above and cell free supernatants were collected for analysis. Data are representative of at least 3-4 healthy donors.
Beyond phenotypic surface markers, M1 (such as Type 1) and M2 (such as Type 2) macrophages produce different cytokines and chemokines. For example, M1 macrophages produce more pro-inflammatory cytokines, including but not limited to, GM-CSF, IL-12, and TNF alpha, whereas M2 macrophages produce more pro-tumorigenic and immunosuppressive cytokines, such as VEGF, IL-10, and TGFb. […]

Test [3] deals with M2 macrophages. Kind of test: macrophage differentiation assay with antibodies, M1 and M2 markers. Type of test: cell-based. Particulars: primary human macrophages under M2 skewing; antibody on day 1, 3 and 7; FIG. 4. An excerpt: Monocytes were differentiated in vitro to M1-like (Type 1) and/or M2-like (Type 2) phenotypes (Ries et a. (2014) Cancer Cell 25:846-859; Vogel et al. (2014) Immunobiol. 219:695-703). In order to differentiate monocytes into M1 versus M2 phenotypes monocytes were isolated from whole blood of healthy donors by Ficoll separation with RosetteSep™ Human Monocyte Enrichment Cocktail (Stemcell Technologies, Vancouver, Canada) according to the manufacturer's instructions. Isolated monocytes were arrayed in 24-well plates overnight in IMDM Media containing 10% fetal bovine serum and non-adherent cells were washed off after 24 hours. […] Expression of M1 and M2 macrophage markers and surface expressed targets was assessed by flow cytometry. […]
Labeled cells were washed twice with FACS buffer and fixed with PBS+2% paraformaldehyde for flow cytometry analysis on an Attune™ flow cytometer (ThermoFisher). Data were analyzed via FlowJo software. Morphology was assessed via microscopy.
Briefly, monocytes were isolated from whole blood of fresh donors by Ficoll separation with RosetteSep™ Human Monocyte Enrichment Cocktail (Stemcell Techhnologies, Vancouver Canada) according to the manufacturer's instructions. […] Cells were assessed for expression of M1 and M2 markers as described above and cell free supernatants were collected for analysis. […]

Take pembrolizumab: in the test on dissociated tumors, the IFNg production result is on record as “stimulating IFNg production” and the IL-10 production result was “induces immunosuppressive IL-10”. In addition, in the test on tumor tissue slices (GI tumor, FIG. 9B), the cytokine response result is reported as “do not provide a response”. The “cytokine response (IFNg, TNFα)” value in the test with tumor tissue slices (lung tumor, FIG. 9A) is “showed a response”. In addition, the “T cell activity (IFNg production)” value in test [1] (donor 2) is given as “no increase in T cell activity”. Further, the “T cell-specific response as indicated by IFNg production” value in test [1] (donor 5) is “increase in T cell-specific response”.

B1: Ab 8: recombinant human IgG4 (S228P) chimera, kappa light chain; variable regions in Table 6 (antibody, V domains shown)
VH: QVQLQQSGPGLVKPSQTLSLTCAISGDSVSSNIAAWHWIRLSPSRGLEWLGRTYYRRSKWNYDYALSVKSRININPDTSKNLFSLQLNSVTPEDTAVYYCTRGGGRAHSAWGQGTLVTVSS
VL: EIVLTQSPGTLSVSPGERATLSCRASQSVSRSHLAWYQQKPGQAPRLLIFGASSRATGIPDRFSGSGSGTDFTLTISRLEPEDFAVYYCQQYGRPGVTFGQGTKVEIK
modifications: human IgG4 S228P constant regions
Turning to B1, the “polarization of M2 macrophages to a more M1-like state, increase in pro-inflammatory cytokines” value in the test on M2 macrophages [2] is on record as “dramatically effect polarization of M2 macrophages to a more M1-like state”. Moreover, the “effect on macrophage phenotypic marker sets (classical and novel biomarkers), reversal of skewing towards M2” value in the test on M2 macrophages [3] is on record as “dose-titratable effect”.

B2: Ab 18: recombinant human IgG4 (S228P) chimera, lambda light chain; variable regions in Table 6 (antibody, V domains shown)
VH: EVQLLESGGGLVRPGGSLRLSCAASGFTFSSYAMSWVRQAPGKGLEWVSAISGSGGSTYYADSVKGRFTISRDNSKNTLYLQMNSLRAEDTAVYYCARDKRLTYWGQGTMVTVSS
VL: QSVVTQPPSVSAAPGQKVTISCSGSSSNIGNNYVSWYQQLPGTAPKLLIYDNNKRPSGIPDRFSGSKSGTSATLGITGLQTGDEADYYCGTWDSSLSARVFGGGTKVTVL
modifications: human IgG4 S228P constant regions
With B2, in the test on M2 macrophages [2], the “polarization of M2 macrophages to a more M1-like state, increase in pro-inflammatory cytokines” value is given as “dramatically effect polarization of M2 macrophages to a more M1-like state”. For the same molecule, the “effect on macrophage phenotypic marker sets (classical and novel biomarkers), reversal of skewing towards M2” value in the test on M2 macrophages [3] is “dose-titratable effect”.
